Source: US4968672A, “Adenosine receptor prodrugs” (priority 1987, dated 1990)
Structures can show the parent of a compound that is named as a salt. Where two headings read alike, the source gives them in different places.

What was measured:
A1 adenosine receptors = target: T1, A1 adenosine receptors (Rattus norvegicus, UniProt P25099); test: membrane binding assay at A1 adenosine receptors (Tables 1 and 2)
T1 construct: rat cerebral cortex membranes; from tissue; host or cells: rat cerebral cortex membranes
T1 sequence (P25099 1-326): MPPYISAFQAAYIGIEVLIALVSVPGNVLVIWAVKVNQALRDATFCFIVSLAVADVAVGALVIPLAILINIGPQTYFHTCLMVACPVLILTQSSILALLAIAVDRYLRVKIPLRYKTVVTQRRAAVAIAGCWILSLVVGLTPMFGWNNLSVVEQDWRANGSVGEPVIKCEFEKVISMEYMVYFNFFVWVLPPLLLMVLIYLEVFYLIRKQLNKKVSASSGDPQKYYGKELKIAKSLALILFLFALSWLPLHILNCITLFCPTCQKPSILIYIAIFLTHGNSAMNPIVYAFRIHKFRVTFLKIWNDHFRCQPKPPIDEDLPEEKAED
Source text: Table 2 lists prodrugs (including Routes A and B of FIG. 2) and chemical intermediates, based on xanthine and adenosine functionalized congener and the method of synthesis. The potency of each compound at A1 adenosine receptors is indicated by the Ki (inverse relationship to potency) in a membrane binding assay.

A2 receptor = target: T2, A2 receptor (Homo sapiens, UniProt P29274); test: antagonism of NECA-induced stimulation of adenylate cyclase activity in human platelet membranes; type: biochemical; settings: antagonism of NECA-stimulated adenylate cyclase, human platelet membranes; means with 95% confidence limits from 3 experiments; read-out: A2 receptor KB
T2 construct: human platetlet membranes; from tissue; host or cells: human platelet membranes
T2 sequence (P29274 whole entry): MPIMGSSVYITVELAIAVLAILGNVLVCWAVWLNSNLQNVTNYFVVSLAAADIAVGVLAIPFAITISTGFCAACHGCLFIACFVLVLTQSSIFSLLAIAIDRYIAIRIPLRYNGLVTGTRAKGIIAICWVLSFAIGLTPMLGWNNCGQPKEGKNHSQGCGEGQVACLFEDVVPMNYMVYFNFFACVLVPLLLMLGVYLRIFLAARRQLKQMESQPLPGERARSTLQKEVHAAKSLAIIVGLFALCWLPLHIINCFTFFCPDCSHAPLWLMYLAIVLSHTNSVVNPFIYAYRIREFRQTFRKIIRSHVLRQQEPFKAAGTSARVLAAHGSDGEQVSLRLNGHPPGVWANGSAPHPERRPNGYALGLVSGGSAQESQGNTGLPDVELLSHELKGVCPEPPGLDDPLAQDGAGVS
Protocol: (§1) Measurements of the potencies of the xanthines as antagonists of NECA-induced stimulation of adenylate cyclase activity in human platetlet membranes and as inhibitors of [^3 H]PIA binding to rat cerebral cortex membranes were carried out as reported previously.

A1 receptor = target: T3, A1 receptor (Rattus norvegicus, UniProt P25099); test: inhibition of [3H]PIA binding to rat cerebral cortex membranes
T3 construct: rat cerebral cortex membranes; from tissue; host or cells: rat cerebral cortex membranes
T3 sequence (P25099 1-326): T1 sequence (P25099 1-326)
Protocol: as §1

[1] = Table 1, liberated product, read-out: Ki(nM) at A1 After Cleavage
[2] = Table 1, prodrug before cleavage, read-out: Ki(nM) at A1 Before Cleavage
[3] = [3H]PIA, rat cerebral cortex membranes, means from two experiments, read-out: A1 receptor Ki

Row | Compound | Ki (A1 adenosine receptors; Table 2, read-out: Ki (A1(nM))) [nM] | also measured
1 | CCCn1c(=O)c2[nH]c(-c3ccc(OCC(=O)NCCNC(=O)CN)cc3)nc2n(CCC)c1=O [HGlyXAC] |  | Ki (A1 adenosine receptors; [1]): 2.1 nM
2 | CCCn1c(=O)c2[nH]c(-c3ccc(OCC(=O)NCCNC(=O)[C@H](N)Cc4ccc([N+](=O)[O-])cc4)cc3)nc2n(CCC)c1=O [TFA.HD(p-NO2)PheXAC] | 4.3 | 
3 | CCCn1c(=O)c2[nH]c(-c3ccc(OCC(=O)NCCO)cc3)nc2n(CCC)c1=O [Compound 39] | 13 | Ki (A1 adenosine receptors; [1]): 12 nM
4 | CCCn1c(=O)c2[nH]c(-c3ccc(OCC(=O)NCCNC(=O)CNC(=O)[C@@H](N)Cc4ccc(O)cc4)cc3)nc2n(CCC)c1=O [Compound 22] |  | Ki (A1 adenosine receptors): 5.3 nM
5 | CCCn1c(=O)c2[nH]c(-c3ccc(OCC(=O)NCCNC(=O)CN(CC(=O)O)C(=O)OCC4c5ccccc5-c5ccccc54)cc3)nc2n(CCC)c1=O [HO2 CCH2N(FMOC)CH2 COXAC, 8-[N -Carboxymethyl-N -(9-fluorenylmethyloxycarbonyl) -[[[[[[[[[amino]methyl]carbonyl]amino]ethyl]amino]carbonyl]methyl]-oxy]phenyl]-1,3-dipropylxanthine] | 170 | 
6 | CCCn1c(=O)c2[nH]c(-c3ccc(OCC(=O)NCCNC(=O)CNC(=O)[C@H](Cc4ccc(O)cc4)NC(=O)OCc4ccccc4)cc3)nc2n(CCC)c1=O [CbzTyrGlyXAC] | 4 | Ki (A1 adenosine receptors; [2]): 4 nM
7 | CCCn1c(=O)c2[nH]c(-c3ccc(OCC(=O)NCCNC(=O)[C@@H](NC(=O)[C@H](Cc4ccc(O)cc4)NC(=O)OCc4ccccc4)C(C)C)cc3)nc2n(CCC)c1=O [CbzTyrValXAC] | 3.7 | 
8 | CCn1c(=O)c2[nH]c(-c3ccccc3)nc2n(CC)c1=O [Compound 51b] |  | Kb (A2 receptor): 210 nM
9 | CCCn1c(=O)c2[nH]c(-c3ccc(OCC(=O)NCCNC(=O)CNC(=O)CN)cc3)nc2n(CCC)c1=O [Compound 20] | 3.6 | 
10 | CCCn1c(=O)c2[nH]c(-c3ccc(OCC(=O)NCCNC(=O)CNC(=O)CNC(=O)CN)cc3)nc2n(CCC)c1=O [HBr.HGlyGlyGlyXAC] | 10 | 
11 | CCCCCCCCCCCCCCCCCC(=O)OCCNC(=O)COc1ccc(-c2nc3c([nH]2)c(=O)n(CCC)c(=O)n3CCC)cc1 [O-stearoyl-XHC] | 208 | Ki (A1 adenosine receptors; [2]): 208 nM
12 | CCCn1c(=O)c2[nH]c(-c3ccc(OCC(=O)NCCNC(=O)c4ccc[n+](C)c4)cc3)nc2n(CCC)c1=O [Compound 43] | 40 | Ki (A1 adenosine receptors; [1]): 10 nM; Ki (A1 adenosine receptors; [2]): 10 nM
13 | CCCn1c(=O)c2c(nc(-c3ccc(OCC(=O)NCCNC(=O)OCc4ccccc4)cc3)n2Cc2ccccc2)n(CCC)c1=O [NCbz(N7-benzyl)XAC] | 95 | 
14 | CCCn1c(=O)c2[nH]c(-c3ccc(OCC(=O)NCCNC(=O)OCc4ccccc4)cc3)nc2n(CCC)c1=O [NCbzXAC] | 8 | 
15 | CCCn1c(=O)c2[nH]c(-c3ccc(OCC(=O)NCCNC(=O)CC[C@H](N)C(=O)O)cc3)nc2n(CCC)c1=O [HGlu(XAC)OH] | 17 | 
16 | CCCn1c(=O)c2[nH]c(-c3ccc(OCC(=O)NCCNC(=O)CNC(=O)CNC(=O)CNC(=O)OCc4ccccc4)cc3)nc2n(CCC)c1=O [CbzGlyGlyGlyXAC] | 10 | 
17 | CCCCCCCC/C=C\CCCCCCCC(=O)OCC(COP(=O)(O)OCCNC(=O)COc1ccc(-c2nc3c([nH]2)c(=O)n(CCC)c(=O)n3CCC)cc1)OC(=O)CCCCCCC/C=C\CCCCCCCC (centres unmarked) [Compound 32, XCC-phosphatidylethanolamine] | 24 ± 1 | potency at adenosine A1 receptors relative to compound 33 / to hydrolysis product (A1 adenosine receptors): of comparable potency
18 | CCCCCCCC/C=C/CCCCCCCC(=O)NCCNC(=O)Cc1ccc(NC(=O)Cc2ccc(Nc3ncnc4c3ncn4[C@@H]3O[C@H](CO)[C@@H](O)[C@H]3O)cc2)cc1 [Compound 37] | < 0.3 | potency in the blocked form (A1 adenosine receptors): highly potent in the blocked form
19 | CCCn1c(=O)c2[nH]c(-c3ccc(OCC(=O)NCCNC(=O)[C@H](CC(C)C)NC(C)=O)cc3)nc2n(CCC)c1=O [AcLeuXAC] | 20 | 
20 | CCCCC/C=C\C/C=C\CCCCCCCC(=O)NCCNC(=O)COc1ccc(-c2nc3c([nH]2)c(=O)n(CCC)c(=O)n3CCC)cc1 [N-linoleyl-XAC] | 35 | 
21 | CCCn1c(=O)c2[nH]c(-c3ccc(OCC(=O)NCCNC(=O)[C@@H](Cc4ccc(N)cc4)NC(=O)OC(C)(C)C)cc3)nc2n(CCC)c1=O [Compound 10] | 32 | 
22 | CCCn1c(=O)c2[nH]c(-c3ccc(OCC(=O)NCCNC(=O)CNC(=O)CNC(=O)OCc4ccccc4)cc3)nc2n(CCC)c1=O [CbzGlyGlyXAC] | 3.1 | 
23 | CCCn1c(=O)c2[nH]c(-c3ccc(OCC(=O)NCCNC(=O)[C@@H](N)C(C)C)cc3)nc2n(CCC)c1=O [HValXAC] |  | Ki (A1 adenosine receptors; [1]): 3 nM

Row | Compound | Ki (A1 adenosine receptors; Table 2, read-out: Ki (A1(nM))) [nM] | also measured
24 | CCCn1c(=O)c2[nH]c(-c3ccc(OCC(=O)NCCOC(C)=O)cc3)nc2n(CCC)c1=O [Compound 40] | 12 | 
25 | CCCn1c(=O)c2[nH]c(-c3ccc(OCC(=O)NCCNC(=O)[C@@H](NC(=O)[C@@H](N)Cc4ccc(O)cc4)C(C)C)cc3)nc2n(CCC)c1=O [Compound 26] |  | Ki (A1 adenosine receptors): 3 nM
26 | CCCCCCCCCCCCCC(=O)NCCNC(=O)COc1ccc(-c2nc3c([nH]2)c(=O)n(CCC)c(=O)n3CCC)cc1 [drawing 10] |  | Ki (A1 adenosine receptors; [2]): 49 nM
27 | CCCn1c(=O)c2[nH]c(-c3ccc(OCC(=O)NCCNC(=O)[C@@H](NC(=O)[C@H](Cc4ccc(OC(C)=O)cc4)NC(C)=O)C(C)C)cc3)nc2n(CCC)c1=O [AcTyr(OAc)ValXAC] | 5 | Ki (A1 adenosine receptors; [2]): 5 nM
28 | CCCn1c(=O)c2[nH]c(-c3ccc(OCC(=O)NCCNC(=O)CC[C@H](NC(=O)OC(C)(C)C)C(=O)OCc4ccccc4)cc3)nc2n(CCC)c1=O [BocGlu(XAC)OBzl, Boc-glutamyl(gamma-XAC)-alpha-benzyl ester] | 18 | 
29 | CCCn1c(=O)c2c(nc(-c3ccc(OCC(=O)NCCN)cc3)n2Cc2ccccc2)n(CCC)c1=O [(N7-benzyl)XAC] | 250 | 
30 | CCCCCCCC/C=C/CCCCCCCC(=O)OCCNC(=O)COc1ccc(-c2nc3c([nH]2)c(=O)n(CCC)c(=O)n3CCC)cc1 [O-elaidoyl-XHC, Elaidic ester of hydroxy congener] | 85 | 
31 | CCCn1c(=O)c2[nH]c(-c3ccc(OCC(=O)NCCNC(=O)[C@H](N)Cc4ccc(N)c(I)c4)cc3)nc2n(CCC)c1=O [TFA.HD(p-NH2 -m-I)PheXAC] | 4 | 
32 | CCCCCCCCCCCCCCCCCC(=O)NCCNC(=O)Cc1ccc(NC(=O)Cc2ccc(Nc3ncnc4c3ncn4[C@@H]3O[C@H](CO)[C@@H](O)[C@H]3O)cc2)cc1 [N-stearoyl-ADAC, Stearoyl-ADAC] | 1 | 
33 | Cn1c(=O)c2[nH]c(-c3ccccc3)nc2n(C)c1=O [Compound 51a] |  | Kb (A2 receptor): 1900 nM
34 | CCn1c(=O)c2[nH]c(-c3ccc(OCC(=O)N(C)CCN(C)C)cc3)nc2n(CC)c1=O [tri-methyl substition of 56b] |  | Ki (A1 receptor; read-out: Ki (A1-potency)): 1.5 nM
35 | Cc1ccc(NC(=O)COc2ccc(-c3nc4c([nH]3)c(=O)n(C)c(=O)n4C)cc2)cc1 [Compound 57a] |  | Ki (A1 receptor; [3]): 27 nM
36 | CCCn1c(=O)c2[nH]c(-c3ccc(OCC(=O)NCCNC(=O)CNC(=O)[C@H](Cc4ccc(OC(C)=O)cc4)NC(C)=O)cc3)nc2n(CCC)c1=O [AcTyr(OAc)GlyXAC] | 3.9 | 
37 | CCCCC/C=C\C/C=C\CCCCCCCC(=O)NCCNC(=O)Cc1ccc(NC(=O)Cc2ccc(Nc3ncnc4c3ncn4[C@@H]3O[C@H](CO)[C@@H](O)[C@H]3O)cc2)cc1 [N-linoleyl-ADAC] | 0.5 | 
38 | CCCn1c(=O)c2[nH]c(-c3ccc(OCC(=O)NCCNC(=O)[C@H](CC(=O)O)NC(=O)OC(C)(C)C)cc3)nc2n(CCC)c1=O [BocAspXAC] | 30 | 
39 | CCCCCC=CCC=CCCCCCCCC(=O)NC(Cc1ccc(OC(=O)CCCCCCCC=CCC=CCCCCC)cc1)C(=O)NCC(=O)NCCNC(=O)COc1ccc(-c2nc3c([nH]2)c(=O)n(CCC)c(=O)n3CCC)cc1 (centres unmarked) [Linoleyl-Tyr(O-linoleyl)-GlyXAC] | 20 | Ki (A1 adenosine receptors; [2]): 20 nM
40 | CCCn1c(=O)c2[nH]c(-c3ccccc3)nc2n(CCC)c1=O [Compound 51c, 1,3-dipropyl-8-phenylxanthine] |  | Ki (A1 receptor; [3]): 13 nM
41 | CCCn1c(=O)c2[nH]c(-c3ccc(OCC(=O)NCCNC(=O)[C@H](N)Cc4ccc(N)cc4)cc3)nc2n(CCC)c1=O [TFA.HD(p-NH2)PheXAC] | 2.3 | 
42 | CCCCCCCCCCCCCC(=O)OCC(COC(=O)CCCCCCCCCCCCC)OC(=O)COc1ccc(-c2nc3c([nH]2)c(=O)n(CCC)c(=O)n3CCC)cc1 [1,3-dimyristin-(2-XCC), 1,3-Dimyristin-2-XCC] | 104 ± 7.7 | Ki (A1 adenosine receptors; [2]): 104 nM
43 | CCCn1c(=O)c2[nH]c(-c3ccc(OCC(=O)NCCNC(=O)CC[C@H](N)C(=O)OCc4ccccc4)cc3)nc2n(CCC)c1=O [TFA.HGlu(XAC)OBzl, Glutamic acid (gamma-XAC) alpha benzyl ester trifluoroacetate] |  | Ki (A1 adenosine receptors): 1.8 nM
44 | CCCn1c(=O)c2[nH]c(-c3ccc(OCC(=O)NCCNC(=O)[C@H](CC(=O)OCc4ccccc4)NC(=O)OC(C)(C)C)cc3)nc2n(CCC)c1=O [BocAsp(OBzl)XAC] | 150 | Ki (A1 adenosine receptors; [2]): 150 nM
45 | CCCn1c(=O)c2[nH]c(-c3ccc(OCC(=O)NCCNC(=O)[C@@H](Cc4ccc([N+](=O)[O-])cc4)NC(=O)OC(C)(C)C)cc3)nc2n(CCC)c1=O [BocD(p-NO2)PheXAC] | 89 | 
